Measured values as given in the supplement of paper PMC10307832.

Legend:
Assay in all cases: relative viability (nuclei count vs DMSO), 5 days (fraction); higher = more cells survive
[1] = compound: CC1(C)CCC(CN2CCN(c3ccc(C(=O)NS(=O)(=O)c4ccc(NCC5CCOCC5)c([N+](=O)[O-])c4)c(Oc4cnc5[nH]ccc5c4)c3)CC2)=C(c2ccc(Cl)cc2)C1 [Venetoclax] + O=C(c1cc(Cc2n[nH]c(=O)c3ccccc23)ccc1F)N1CCN(C(=O)C2CC2)CC1 [Olaparib] (partner 8 µM)
In short: (§1)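 One day after seeding in 1536-well plates, lung cancer cell lines were dosed by pin tool. Dosing was either single-drug or a fixed anchor-drug dose plus five library-drug doses (not always all listed) in √10 steps. After 5 days, nuclei were stained in one fix-and-stain step and counted on 4× images, and relative viability is the nuclei count of treated wells over that of vehicle wells, given as the median of duplicate plates.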

[2] = compound: Cn1cnc2c(F)c(Nc3ccc(Br)cc3Cl)c(C(=O)NOCCO)cc21 [Selumetinib] + O=C(CCCCCCC(=O)Nc1ccccc1)NO [Vorinostat] (partner 1 µM)
In short: as §1

[3] = compound: CC1(C)CCC(CN2CCN(c3ccc(C(=O)NS(=O)(=O)c4ccc(NCC5CCOCC5)c([N+](=O)[O-])c4)c(Oc4cnc5[nH]ccc5c4)c3)CC2)=C(c2ccc(Cl)cc2)C1 [Venetoclax] + Nc1nc2[nH]cc(CCc3ccc(C(=O)N[C@@H](CCC(=O)O)C(=O)O)cc3)c2c(=O)[nH]1 [Pemetrexed] (partner 0.2 µM)
In short: as §1

[4] = compound: Cn1cnc2c(F)c(Nc3ccc(Br)cc3Cl)c(C(=O)NOCCO)cc21 [Selumetinib] + CS(=O)(=O)N1CCN(Cc2cc3nc(-c4cccc5[nH]ncc45)nc(N4CCOCC4)c3s2)CC1 [Pictilisib] (partner 1 µM)
In short: as §1

Cell Line | relative viability ([1]; first compound 0.01 µM) | relative viability ([1]; first compound 0.03162 µM) | relative viability ([1]; first compound 0.1 µM) | relative viability ([1]; first compound 0.3162 µM) | relative viability ([1]; first compound 1 µM) | relative viability ([2]; first compound 0.02 µM) | relative viability ([2]; first compound 0.06325 µM) | relative viability ([2]; first compound 0.2 µM) | relative viability ([2]; first compound 0.6325 µM) | relative viability ([3]; first compound 0.01 µM) | relative viability ([3]; first compound 0.03162 µM) | relative viability ([3]; first compound 0.1 µM) | relative viability ([3]; first compound 0.3162 µM) | relative viability ([3]; first compound 1 µM) | relative viability ([4]; first compound 0.02 µM) | relative viability ([4]; first compound 0.06325 µM) | relative viability ([4]; first compound 0.2 µM) | relative viability ([4]; first compound 0.6325 µM)
HCC-366 | 0.4 | 0.374 | 0.372 | 0.353 | 0.311 | 0.335 | 0.41 | 0.344 | 0.445 | 0.16 | 0.16 | 0.172 | 0.186 | 0.197 | 0.136 | 0.0735 | 0.124 | 0.115
HCC-827 | 0.647 | 0.703 | 0.642 | 0.603 | 0.655 | 1 | 0.906 | 0.999 | 0.957 | 0.239 | 0.289 | 0.25 | 0.269 | 0.28 | 0.82 | 1.23 | 0.79 | 0.904
HOP-62 | 0.318 | 0.622 | 0.359 | 0.203 | 0.394 | 0.579 | 0.556 | 0.555 | 0.349 | 0.356 | 0.335 | 0.287 | 0.313 | 0.355 | 0.713 | 0.407 | 0.26 | 0.261
IA-LM | 0.795 | 0.819 | 0.7 | 0.795 | 0.67 | 0.728 | 0.648 | 0.366 | 0.198 |  |  |  |  |  | 0.144 | 0.143 | 0.119 | 0.0815
LC-2-ad | 0.735 | 0.696 | 0.664 | 0.702 | 0.708 | 0.653 | 0.723 | 0.665 | 0.67 | 0.283 | 0.27 | 0.256 | 0.262 | 0.259 | 0.482 | 0.426 | 0.432 | 0.437
